# Data published in patent US10822450B2, “Poly(glycerol sebacate)-interleukin inhibitor copolymers and methods of making and use” (THE SECANT GROUP, LLC, priority 2017, dated 2020).
# Type: physicochemical
# Settings: pH 11
# Method: A PGS-aspirin copolymer from Example 6 was thermoset by heating to 130° C. at a pressure of 10 Torr for 72 hours. Three thin cylindrical disks, each having a diameter of 10 mm, were punched out of the resultant thin film, which was about 1 mm thick.
# Each disk was placed in 10 mL of 0.09 M phosphate-buffered saline (PBS) at a pH of 11 and a temperature of 37° C. for four weeks. At 1-week intervals, the solution was removed and tested for salicylic acid content by UV analysis at a wavelength of 303 nm and for pH. Each sample was rinsed three times with distilled water and vacuum dried prior to being placed in fresh PBS.
substance,measurement,value
PGS-aspirin copolymer [Example 8],disk integrity during degradation,began to fall apart
